Measured values published in patent US20260062422A1 (Halda Therapeutics OpCo, Inc., priority 2022, published 2026).

Columns and labels:
[1] = system: T47D cells; experiment: Cellular growth inhibition assay for T47D cells, CellTiter-Glo; type: cell-based, human; details: Homo sapiens, T47D, 72 h, 72 hours treatment, CellTiter-Glo 2.0 cell viability
Outline: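 Growth inhibition as GI50, fitted with four parameters to CellTiter-Glo luminescence after 72 h of compound exposure (0.5% DMSO). Cells were T47D, grown in insulin-supplemented (0.2 units/mL) DMEM with 10% FBS and treated one day post-seeding.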

[2] = system: T-Rex 293 cell line SC3 cells lacking increased expression of androgen receptor protein; experiment: Cellular growth inhibition, T-Rex 293 SC3 cells without doxycycline, CellTiter-Glo; type: cell-based; details: 72 h, T-Rex 293 SC3 cells not exposed to doxycycline, CellTiter-Glo 2.0
Outline: (§1)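 With DMSO (0.5%) vehicle as negative control, compounds treated SC3 cells for 72 h in medium containing charcoal-dextran FBS ± doxycycline. This T-Rex 293 clone expresses transfected wild-type AR on induction. Readout: CellTiter-Glo 2.0; GI50 by nonlinear regression.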

[3] = system: VCaP cells; experiment: Cellular growth inhibition assay for VCaP cells, CellTiter-Glo; type: cell-based, human; details: Homo sapiens, VCaP, 72 h, 72 hours treatment, CellTiter-Glo 2.0
Outline: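 GI50 values come from four-parameter curve fits of luminescence data normalized to a zero baseline. Compound, in medium with 0.5% DMSO, was added one day after plating and left for 72 h before CellTiter-Glo 2.0 addition.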

[4] = system: T-Rex 293 cell line SC3 cells having increased expression of androgen receptor protein due to exposure to doxycycline; experiment: Cellular growth inhibition, T-Rex 293 SC3 cells with doxycycline (androgen receptor induced), CellTiter-Glo; type: cell-based; details: 72 h, T-Rex 293 SC3 cells with 10 ng/mL doxycycline (increased androgen receptor expression)
Outline: as §1

| Structure (SMILES) | GI50 [1] [nM] | GI50 [3] [nM] | GI50 [2] [nM] | GI50 [4] [nM] |
| --- | --- | --- | --- | --- |
| Cc1sc2c(c1C)C(c1ccc(CCCC3CCN(c4ncc(C(=O)N[C@H]5C(C)(C)[C@H](Oc6ccc(C#N)c(Cl)c6)C5(C)C)cn4)CC3)cc1)=NC(Cc1ncco1)c1nnc(C)n1-2 (stereo partly drawn) [Compound I-133] | < 500 | < 500 | 500 to 1500 | < 500 |
| Cc1sc2c(c1C)C(c1ccc(CN3CC(=O)N4C[C@@H](c5ncc(C(=O)N[C@H]6C(C)(C)[C@H](Oc7ccc(C#N)c(Cl)c7)C6(C)C)cn5)C[C@H]4C3=O)cc1)=N[C@@H](Cc1ncco1)c1nnc(C)n1-2 [Compound I-358] | 500 to 1500 | < 500 | > 3000 | < 500 |
| Cc1sc2c(c1C)C(c1ccc(CC3CC4(C3)CN(c3ncc(C(=O)N[C@H]5C(C)(C)[C@H](Oc6ccc(C#N)c(Cl)c6)C5(C)C)cn3)C4)cc1)=N[C@H](Cc1ncco1)c1nnc(C)n1-2 [Compound I-152] | > 3000 | > 3000 | > 3000 | < 500 |
| Cc1sc2c(c1C)C(c1ccc(C3(N(C)CC4CCN(c5ncc(C(=O)N[C@H]6C(C)(C)[C@H](Oc7ccc(C#N)c(Cl)c7)C6(C)C)cn5)CC4)COC3)cc1)=N[C@@H](C)c1nnc(C)n1-2 [Compound I-377] | > 3000 | > 3000 | > 3000 | > 3000 |
| Cc1sc2c(c1C)C(c1ccc(O[C@H]3CC[C@@]4(CCN(c5ncc(C(=O)N[C@H]6C(C)(C)[C@H](Oc7ccc(C#N)c(Cl)c7)C6(C)C)cn5)C4)C3)cc1)=N[C@@H](Cc1ncco1)c1nnc(C)n1-2 [Compound I-176] | < 500 | < 500 | 500 to 1500 | < 500 |
| Cc1sc2c(c1C)C(c1ccc(OC3CC4(C3)CC3(CCN(c5cnc(C(=O)N[C@H]6C(C)(C)[C@H](Oc7ccc(C#N)c(Cl)c7)C6(C)C)cn5)CC3)C4)cc1)=N[C@@H](C)c1nnc(C)n1-2 [Compound I-412] | < 500 | > 3000 | > 3000 | > 3000 |
| Cc1sc2c(c1C)C(c1ccc(O[C@H]3COC4(CCN(c5ncc(C(=O)N[C@H]6C(C)(C)[C@H](Oc7ccc(C#N)c(Cl)c7)C6(C)C)cn5)C4)C3)cc1)=N[C@@H](Cc1ncco1)c1nnc(C)n1-2 (stereo partly drawn) [Compound I-195] | < 500 | < 500 | < 500 | < 500 |

Second part, led by results:

| GI50 [1] [nM] | GI50 [3] [nM] | Structure (SMILES) | GI50 [2] [nM] | GI50 [4] [nM] |
| --- | --- | --- | --- | --- |
| > 3000 | < 500 | Cc1sc2c(c1C)C(c1ccc(C[C@H]3C[C@@]4(CCCN(c5ncc(C(=O)N[C@H]6C(C)(C)[C@H](Oc7ccc(C#N)c(Cl)c7)C6(C)C)cn5)C4)C3)cc1)=N[C@@H](C)c1nnc(C)n1-2 [Compound I-393] | > 3000 | < 500 |
| < 500 | < 500 | Cc1sc2c(c1C)C(c1ccc(CNC(=O)[C@@H]3CCCN(c4ncc(C(=O)N[C@H]5C(C)(C)[C@H](Oc6ccc(C#N)c(Cl)c6)C5(C)C)cn4)C3)cc1)=N[C@@H](Cc1ncco1)c1nnc(C)n1-2 [Compound I-265] | 1500 to 3000 | < 500 |
| < 500 | < 500 | Cc1sc2c(c1C)C(c1ccc(C3CN(C4CCN(c5ncc(C(=O)N[C@H]6C(C)(C)[C@H](Oc7ccc(C#N)c(Cl)c7)C6(C)C)cn5)CC4)C3)cc1)=N[C@@H](Cc1ncco1)c1nnc(C)n1-2 [Compound I-247] | < 500 | < 500 |
| 1500 to 3000 | > 3000 | Cc1sc2c(c1C)C(c1ccc(C[C@H]3C[C@@H]([C@H]4CCCN(c5ncc(C(=O)N[C@H]6C(C)(C)[C@H](Oc7ccc(C#N)c(Cl)c7)C6(C)C)cn5)C4)C3)cc1)=N[C@@H](Cc1ncco1)c1nnc(C)n1-2 [Compound I-160] | > 3000 | > 3000 |
| < 500 | < 500 | Cc1sc2c(c1C)C(c1ccc(-c3ncc(C4CCN(c5ncc(C(=O)N[C@H]6C(C)(C)[C@H](Oc7ccc(C#N)c(Cl)c7)C6(C)C)cn5)CC4)s3)cc1)=N[C@@H](Cc1ncco1)c1nnc(C)n1-2 [Compound I-452] | < 500 | < 500 |
